Experimental data taken from patent US10059687B2, “Histone demethylase inhibitors” (CELGENE QUANTICEL RESEARCH, INC., priority 2015, dated 2018).

Columns and labels:
[1] = tested on: esophageal squamous cell carcinoma KYSE-150 cells; assay: Cellular IC50 in KYSE-150 cells; format: cell-based; details: Homo sapiens, one class given per A and B pair
Text: Table 7 provides IC50 values of various compounds disclosed herein, tested in cellular human esophageal squamous cell carcinoma KYSE-150 cells: […]

Jarid1B = Jarid1B (Homo sapiens (Human), UniProt Q9UGL1); assay: In vitro enzyme inhibition assay for Jarid1B activity (TR-FRET); format: biochemical
Procedure: The ability of test compounds to inhibit the activity of Jarid1B was determined in 384-well plate format under the following reaction conditions: 0.8 nM Jarid1B, 300 nM H3K4me3-biotin labeled peptide (Anaspec cat #64357), 2 μM alpha-ketoglutaric acid in assay buffer of 50 mM HEPES, pH7.3, 0.005% Brij35, 0.5 mM TCEP, 0.2 mg/ml BSA, 50 μM sodium L-ascorbate, and 2 μM ammonium iron(II) sulfate. Reaction product was determined quantitatively by TR-FRET after the addition of detection reagent Phycolink Streptavidin-allophycocyanin (Prozyme) and Europium-anti-H3K4me or -H3K4me2 antibody (PerkinElmer) in the presence of 5 mM EDTA in LANCE detection buffer (PerkinElmer) at a final concentration of 25 nM and 1 nM, respectively.
(§1) The assay reaction was initiated by the following: 2 μl of the mixture of 900 nM H3K4me3-biotin labeled peptide and 6 μM alpha-ketoglutaric acid with 2 μl of 11-point serial diluted inhibitor in 3% DMSO was added to each well of the plate, followed by the addition of 2 μl of 2.4 nM Jarid1B to initiate the reaction. The reaction mixture was incubated at RT for 30 min, and terminated by the addition of 6 μl of 5 mM EDTA in LANCE detection buffer containing 50 nM Phycolink Streptavidin-allophycocyanin and 2 nM Europium-anti-H3K4me/H3K4me2 antibody. Plates were read by EnVisionMultilabel Reader in TR-FRET mode (excitation at 320 nm, emission at 615 nm and 665 nm) after 1 hr incubation at RT. A ratio was calculated (665/615) for each well and fitted to determine inhibition constant (IC50).

JMJD2C = JMJD2C (Homo sapiens (Human), UniProt Q9H3R0); assay: In vitro enzyme inhibition assay for JMJD2C activity (TR-FRET); format: biochemical
Procedure: This assay determines the ability of a test compound to inhibit JMJD2C demethylase activity. Baculovirus expressed JMJD2C (GenBank Accession #BC143571, AA 2-372) was purchased from BPS Bioscience (Cat#50105).
The ability of test compounds to inhibit the activity of JMJD2C was determined in 384-well plate format under the following reaction conditions: 0.3 nM JMJD2C, 300 nM H3K9me3-biotin labeled peptide (Anaspec cat #64360), 2 μM alpha-ketoglutaric acid in assay buffer of 50 mM HEPES, pH7.3, 0.005% Brij35, 0.5 mM TCEP, 0.2 mg/ml BSA, 50 μM sodium L-ascorbate, and 2 μM ammonium iron(II) sulfate. Reaction product was determined quantitatively by TR-FRET after the addition of detection reagent Phycolink Streptavidin-allophycocyanin (Prozyme) and Europium-anti-di-methylated histone H3 lysine 9 (H3K9me2) antibody (PerkinElmer) in the presence of 5 mM EDTA in LANCE detection buffer (PerkinElmer) at a final concentration of 50 nM and 1 nM, respectively.
as §1, with “nM H3K9me3-biotin” for “nM H3K4me3-biotin”, “DMSO were” for “DMSO was”, “of 0.9” for “of 2.4”, “nM JMJD2C” for “nM Jarid1B”, “containing 100” for “containing 50”, “nM Europium-anti-H3K9me2” for “nM Europium-anti-H3K4me/H3K4me2”

JMJD3 = JMJD3 (Homo sapiens, UniProt O15054); assay: In vitro enzyme inhibition assay for JMJD3 activity (TR-FRET); format: biochemical
Procedure: This assay determines the ability of a test compound to inhibit JMJD3 demethylase activity. Baculovirus expressed JMJD3 (GenBank Accession #NM-001080424, AA1043-end) was purchased from BPS Bioscience (Cat#50115).
The enzymatic assay of JMJD3 activity is based upon Time Resolved-Fluorescence Resonance Energy Transfer (TR-FRET) detection. The ability of test compounds to inhibit the activity of JMJD3 was determined in 384-well plate format under the following reaction conditions: 5 nM JMJD3, 250 nM H3K27me3-biotin labeled peptide (Anaspec cat #64367), 0.4 to 2 μM α-ketoglutaric acid in assay buffer of 50 mM HEPES, pH7.3, 0.005% Brij35, 0.5 mM TCEP, 0.2 mg/ml BSA, 50 μM sodium L-ascorbate, and 5 μM ammonium iron(II) sulfate. Reaction product was determined quantitatively by TR-FRET after the addition of detection reagent Phycolink Streptavidin-allophycocyanin (Prozyme) and Europium-anti-H3K27me2 antibody (PerkinElmer) in the presence of 5 mM EDTA in LANCE detection buffer (PerkinElmer) at a final concentration of 50 nM and 1 nM, respectively.
The assay reaction was initiated by the following: […] of the mixture of 750 nM H3K27me3-biotin labeled peptide and 1.2 to 6 μM alpha-ketoglutaric acid with 2 μL of 11-point serial diluted inhibitor in 3% DMSO were added to each well of plate, followed by the addition of 2 μl of 15 nM JMJD3 to initiate the reaction. The reaction mixture was incubated at RT for 30 min, and terminated by the addition of 6 μL of 5 mM EDTA in LANCE detection buffer containing 100 nM Phycolink Streptavidin-allophycocyanin and 2 nM Europium-anti-H3K27me2 antibody. Plates were read by EnVisionMultilabel Reader in TR-FRET mode (excitation at 320 nm, emission at 615 nm and 665 nm) after 1 hr incubation at RT. A ratio from the readout of 665/615 was calculated for each well and fitted to determine inhibition constant (IC50).

[2] = Table 4, cell gives A/B enantiomer values
[3] = Table 5, one class given per A and B pair

Sequence of JMJD2C (Q9H3R0 2-372): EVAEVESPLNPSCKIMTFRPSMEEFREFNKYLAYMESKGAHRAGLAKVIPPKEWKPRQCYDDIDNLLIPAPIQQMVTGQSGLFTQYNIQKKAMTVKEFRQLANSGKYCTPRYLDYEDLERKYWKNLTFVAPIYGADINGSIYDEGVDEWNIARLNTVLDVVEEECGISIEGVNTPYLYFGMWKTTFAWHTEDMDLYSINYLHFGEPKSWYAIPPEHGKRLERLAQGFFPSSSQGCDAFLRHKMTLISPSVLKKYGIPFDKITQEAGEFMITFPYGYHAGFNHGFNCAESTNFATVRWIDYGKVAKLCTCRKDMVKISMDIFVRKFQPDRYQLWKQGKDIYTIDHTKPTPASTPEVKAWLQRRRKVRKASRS
Sequence of Jarid1B (Q9UGL1 whole entry, species assumed): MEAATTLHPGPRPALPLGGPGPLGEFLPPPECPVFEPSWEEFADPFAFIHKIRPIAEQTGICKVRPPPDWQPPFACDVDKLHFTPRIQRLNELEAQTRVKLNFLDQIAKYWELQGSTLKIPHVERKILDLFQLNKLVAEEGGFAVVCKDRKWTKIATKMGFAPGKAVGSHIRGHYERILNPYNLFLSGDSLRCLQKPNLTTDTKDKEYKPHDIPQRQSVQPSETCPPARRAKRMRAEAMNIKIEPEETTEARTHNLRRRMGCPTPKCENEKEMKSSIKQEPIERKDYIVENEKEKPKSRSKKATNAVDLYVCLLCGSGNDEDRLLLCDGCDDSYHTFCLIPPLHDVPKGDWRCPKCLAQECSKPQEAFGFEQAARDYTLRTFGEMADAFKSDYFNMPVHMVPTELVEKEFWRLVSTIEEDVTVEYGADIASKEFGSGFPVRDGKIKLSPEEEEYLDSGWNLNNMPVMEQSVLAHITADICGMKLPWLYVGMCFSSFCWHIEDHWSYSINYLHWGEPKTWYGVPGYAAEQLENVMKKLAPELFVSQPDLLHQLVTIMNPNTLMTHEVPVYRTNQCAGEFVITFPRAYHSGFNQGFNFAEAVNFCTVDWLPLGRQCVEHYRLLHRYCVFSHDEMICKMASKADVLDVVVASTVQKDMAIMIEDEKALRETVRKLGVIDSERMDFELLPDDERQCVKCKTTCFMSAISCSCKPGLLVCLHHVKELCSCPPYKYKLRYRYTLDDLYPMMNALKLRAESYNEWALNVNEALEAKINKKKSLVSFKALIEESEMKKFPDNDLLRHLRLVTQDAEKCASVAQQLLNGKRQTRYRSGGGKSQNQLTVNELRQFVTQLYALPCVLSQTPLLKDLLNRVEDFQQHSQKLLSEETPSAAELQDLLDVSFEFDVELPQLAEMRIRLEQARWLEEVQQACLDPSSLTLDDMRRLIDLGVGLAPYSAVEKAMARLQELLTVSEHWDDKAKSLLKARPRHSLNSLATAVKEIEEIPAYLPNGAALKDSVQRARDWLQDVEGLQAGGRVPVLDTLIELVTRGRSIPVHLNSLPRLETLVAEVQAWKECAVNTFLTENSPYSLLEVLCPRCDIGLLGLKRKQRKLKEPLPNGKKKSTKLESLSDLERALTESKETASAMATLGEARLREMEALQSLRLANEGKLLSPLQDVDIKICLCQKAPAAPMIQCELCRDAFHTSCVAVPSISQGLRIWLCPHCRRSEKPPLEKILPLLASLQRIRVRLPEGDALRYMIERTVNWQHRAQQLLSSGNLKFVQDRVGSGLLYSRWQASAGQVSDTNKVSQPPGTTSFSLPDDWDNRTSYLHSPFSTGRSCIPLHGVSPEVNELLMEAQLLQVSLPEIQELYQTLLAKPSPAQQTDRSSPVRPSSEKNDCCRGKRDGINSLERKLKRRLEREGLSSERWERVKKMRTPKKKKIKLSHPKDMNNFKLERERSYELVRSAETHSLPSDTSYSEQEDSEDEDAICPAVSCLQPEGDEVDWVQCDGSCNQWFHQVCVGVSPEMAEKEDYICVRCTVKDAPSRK

Structure (SMILES) | IC50 [1] [µM] | IC50 (Jarid1B; [2]) [µM] | IC50 (Jarid1B; [3]) [µM] | IC50 (JMJD2C; [2]) [µM] | IC50 (JMJD2C; [3]) [µM] | IC50 (JMJD3; [2]) [µM] | IC50 (JMJD3; [3]) [µM]
CCc1ccccc1-c1ccc2c(c1)CCN(C)[C@H]2CNc1cnccc1C(=O)O [Example 15A, (R)-3-(((6-(2-ethylphenyl)-2-methyl-1,2,3,4-tetrahydroisoquinolin-1-yl)methyl)amino)isonicotinic acid] | – | – | ≤ 0.1 | – | 0.1 to 1 | – | 1 to 10
CCc1ccccc1-c1ccc2c(c1)CCN(C)[C@@H]2CNc1cnccc1C(=O)O [Example 15B, (S)-3-(((6-(2-ethylphenyl)-2-methyl-1,2,3,4-tetrahydroisoquinolin-1-yl)methyl)amino)isonicotinic acid] | – | – | ≤ 0.1 | – | 0.1 to 1 | – | 1 to 10
CC(C)c1ccccc1-c1ccc2c(c1)CCN(C)[C@H]2CNc1cnccc1C(=O)O [Example 16A, (R)-3-(((6-(2-isopropylphenyl)-2-methyl-1,2,3,4-tetrahydroisoquinolin-1-yl)methyl)amino)isonicotinic acid] | – | – | ≤ 0.1 | – | 1 to 10 | – | –
CC(C)c1ccccc1-c1ccc2c(c1)CCN(C)[C@@H]2CNc1cnccc1C(=O)O [Example 16B, (S)-3-(((6-(2-isopropylphenyl)-2-methyl-1,2,3,4-tetrahydroisoquinolin-1-yl)methyl)amino)isonicotinic acid] | – | – | ≤ 0.1 | – | 1 to 10 | – | –
Cc1cccc(C)c1-c1ccc2c(c1)CCN(C)[C@H]2CNc1cnccc1C(=O)O [Example 17A, (R)-3-(((6-(2,6-dimethylphenyl)-2-methyl-1,2,3,4-tetrahydroisoquinolin-1-yl)methyl)amino)isonicotinic acid] | – | – | ≤ 0.1 | – | 1 to 10 | – | –
Cc1cccc(C)c1-c1ccc2c(c1)CCN(C)[C@@H]2CNc1cnccc1C(=O)O [Example 17B, (S)-3-(((6-(2,6-dimethylphenyl)-2-methyl-1,2,3,4-tetrahydroisoquinolin-1-yl)methyl)amino)isonicotinic acid] | – | – | ≤ 0.1 | – | 1 to 10 | – | –

Other lines, results leading:

IC50 [1] [µM] | IC50 (Jarid1B; [2]) [µM] | IC50 (Jarid1B; [3]) [µM] | IC50 (JMJD2C; [2]) [µM] | IC50 (JMJD2C; [3]) [µM] | IC50 (JMJD3; [2]) [µM] | IC50 (JMJD3; [3]) [µM] | Structure (SMILES)
1 to 10 | ≤ 0.1 | ≤ 0.1 | 0.1 to 1 | 0.1 to 1 | – | – | Cc1ccc(N(C)c2ccc3c(c2)CCN[C@H]3CNc2cnccc2C(=O)O)cc1 [Example 1B, 3-[({(1R)-6-[methyl(4-methylphenyl)amino]-1,2,3,4-tetrahydroisoquinolyl}methyl)amino]pyridine-4-carboxylic acid]
≤ 0.1 | ≤ 0.1 | ≤ 0.1 | 0.1 to 1 | 0.1 to 1 | 0.1 to 1 | 0.1 to 1 | CC(C)c1ccc(N(C)c2ccc3c(c2)CCN[C@H]3CNc2cnccc2C(=O)O)cc1 [Example 3B, 3-{[((1R)-6-{methyl[4-isopropylphenyl]amino}-1,2,3,4-tetrahydroisoquinolyl)methyl]amino}pyridine-4-carboxylic acid]
0.1 to 1 | ≤ 0.1 | ≤ 0.1 | 1 to 10 | 0.1 to 1 | 1 to 10 | > 10 | Cc1cc(OCC2CC2)ccc1-c1ccc2c(c1)CCN[C@@H]2CNc1cnccc1C(=O)O [Example 4A, 3-[({(1S)-6-[4-(cyclopropylmethoxy)-2-methylphenyl]-1,2,3,4-tetrahydro-isoquinolyl}methyl)amino]pyridine-4-carboxylic acid]
0.1 to 1 | ≤ 0.1 | ≤ 0.1 | 1 to 10 | 0.1 to 1 | > 10 | > 10 | Cc1cc(OCC2CC2)ccc1-c1ccc2c(c1)CCN[C@H]2CNc1cnccc1C(=O)O [Example 4B, 3-[({(1R)-6-[4-(cyclopropylmethoxy)-2-methylphenyl]-1,2,3,4-tetrahydro-isoquinolyl}methyl)amino]pyridine-4-carboxylic acid]
1 to 10 | ≤ 0.1 | ≤ 0.1 | – | – | – | – | Cc1ccc(N(C)c2ccc3c(c2)CN[C@@H]3CNc2cnccc2C(=O)O)cc1 [Example 5A, 3-[({(1S)-5-[methyl(4-tolyl)amino]isoindolinyl}methyl)amino]pyridine-4-carboxylic acid]
1 to 10 | ≤ 0.1 | ≤ 0.1 | – | – | – | – | Cc1ccc(N(C)c2ccc3c(c2)CN[C@H]3CNc2cnccc2C(=O)O)cc1 [Example 5B, 3-[({(1R)-5-[methyl(4-tolyl)amino]isoindolinyl}methyl)amino] pyridine-4-carboxylic acid]
0.1 to 1 | ≤ 0.1 | ≤ 0.1 | 1 to 10 | 1 to 10 | 1 to 10 | 1 to 10 | CC(C)c1ccc(N(C)c2ccc3c(c2)CN[C@@H]3CNc2cnccc2C(=O)O)cc1 [Example 6A, 3-{[((1S)-5-{methyl[4-isopropylphenyl]amino}isoindolinyl)methyl]amino}pyridine-4-carboxylic acid]
0.1 to 1 | ≤ 0.1 | ≤ 0.1 | 1 to 10 | 1 to 10 | > 10 | 1 to 10 | CC(C)c1ccc(N(C)c2ccc3c(c2)CN[C@H]3CNc2cnccc2C(=O)O)cc1 [Example 6B, 3-{[((1R)-5-{methyl[4-isopropylphenyl]amino}isoindolinyl)methyl]amino}pyridine-4-carboxylic acid]
0.1 to 1 | ≤ 0.1 | ≤ 0.1 | 1 to 10 | 1 to 10 | 0.1 to 1 | 1 to 10 | Cc1cc(OCC(F)(F)F)ccc1-c1ccc2c(c1)CN[C@@H]2CNc1cnccc1C(=O)O [Example 7A, 3-[({(1S)-5-[2-methyl-4-(2,2,2-trifluoro-ethoxy)phenyl]isoindolinyl}methyl)amino]pyridine-4-carboxylic acid]
0.1 to 1 | ≤ 0.1 | ≤ 0.1 | 1 to 10 | 1 to 10 | 1 to 10 | 1 to 10 | Cc1cc(OCC(F)(F)F)ccc1-c1ccc2c(c1)CN[C@H]2CNc1cnccc1C(=O)O [Example 7B, 3-[({(1R)-5-[2-methyl-4-(2,2,2-trifluoro-ethoxy)phenyl]isoindolinyl}methyl)amino] pyridine-4-carboxylic acid]
